Patent publication US8916555B2, “3,5-diaminopyrazole kinase inhibitors” (Axikin Pharmaceuticals, Inc., priority 2012, dated 2014)

How the values were obtained:
[1] = target: T1, kinase domain protein of RC kinase (Homo sapiens, UniProt Q56UN5); experiment: Enzymatic assay for kinase inhibitory activity (Crebtide substrate, LANCE readout), kinase domain protein; format: biochemical; details: test compound 1 μM, ATP 1 μM, Crebtide 50 nM
T1 sequence (Q56UN5 1061-1324 limits assumed): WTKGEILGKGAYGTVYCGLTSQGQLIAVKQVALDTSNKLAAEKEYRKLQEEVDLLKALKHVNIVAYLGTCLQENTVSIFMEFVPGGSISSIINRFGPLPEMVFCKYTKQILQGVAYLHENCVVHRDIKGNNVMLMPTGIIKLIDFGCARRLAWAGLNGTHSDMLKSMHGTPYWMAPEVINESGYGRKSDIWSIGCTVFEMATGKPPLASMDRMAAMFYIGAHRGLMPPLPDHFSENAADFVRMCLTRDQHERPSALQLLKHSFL
Method: Solutions of a test compound, Crebtide (a substrate), a kinase, and ATP were prepared using 1×MAPK Buffer (50 mM HEPES, 1 mM EGTA, […], 10 mM MgCl2, 2 mM DTT, and 0.01% Tween 20).
To each well, the test compound (1 μL) was first added (in duplicate) to reach a final concentration of 1 μM or 1×IC50 of the compound. The kinase (5 μL) was then added to each well to reach a final concentration of […] for the kinase domain or […] for the full-length domain. Each plate included a positive and negative controls in duplicate wells. Crebtide (2.5 μL) was then added to each well in duplicate to reach a final concentration of 50 nM. If the full-length kinase was used, the plates were incubated for 45 min at room temperature before proceeding further. ATP (2.5 μL) was added to each well to reach a final concentration of 1 μM for the kinase domain and 3 μM for the full-length.
After the addition of ATP, the plates were incubated for 45 min at room temperature. During the incubation, an EDTA solution (40 mM) and anti-Crebtide ([…]) were prepared. Additionally, a detection buffer stock solution was diluted ten fold before use.
After the incubation, the anti-Crebtide (5 μL) and EDTA (5 μL) were added to each well to reach their final concentrations of […] and 10 mM, respectively. The plates were allowed to develop at room temperature for 45 min. The plates were then read at 665 nm and 615 nm using Perkin Elmer Lance machine.
The biological results of inhibition of the kinase domain protein of RC kinase are summarized in Tables 2 and 3, wherein A represents at least 50% inhibition of the RC kinase activity at 1 μM; B represents no greater than 50% but at least 20% inhibition of the RC kinase activity at 1 μM; C represents no greater than 20% but at least 5% inhibition of the RC kinase activity at 1 μM; and D represents no greater than 5% inhibition of the RC kinase activity at 1 μM.

| Structure (SMILES) | Activity (inhibition of the RC kinase activity at 1 μM) [1] | melting point | inhibition at 1 µM [1] |
| --- | --- | --- | --- |
| N#Cc1c(Nc2cccc(Cl)c2)n[nH]c1NCc1ccc(Oc2ccc(C(F)(F)F)cn2)cc1 [Compound C2] | B (no greater than 50% but at least 20% inhibition of the RC kinase activity at 1 μM) | 62 to 72 °C | – |
| Cn1nc(CSc2ccccc2)c(CNc2[nH]nc(Nc3cccc(Cl)c3)c2C#N)c1Cl [Compound C3] | – | 100 to 104 °C | 5 to 20% |
| N#Cc1c(Nc2cccc(Cl)c2)n[nH]c1NCc1ccc(Cl)cc1Cl [Compound C19] | – | 171 to 174 °C | 5 to 20% |
| N#Cc1c(Nc2cccc(Cl)c2)n[nH]c1NCc1ccc(Cl)cc1O [Compound C24] | – | 172 to 180 °C | 5 to 20% |
| COc1ccc(CNc2[nH]nc(Nc3cccc(Cl)c3)c2C#N)cc1F [Compound C27] | – | 97 to 105 °C | 5 to 20% |
| N#Cc1c(Nc2cccc(Cl)c2)n[nH]c1NCc1ccc(O)cc1 [Compound C31, 3-((3-chlorophenyl)amino)-5-((4-hydroxybenzyl)amino)-1H-pyrazole-4-carbonitrile] | – | 205 to 208 °C | ≤ 5% |
| N#Cc1c(Nc2cccc(Cl)c2)n[nH]c1NCc1ccc(Oc2ccc(C(F)(F)F)cn2)cc1 [Compound C32, 3-((3-chlorophenyl)amino)-5-((4-((5-(trifluoromethyl)pyridin-2-yl)oxy)benzyl)amino)-1H-pyrazole-4-carbonitrile] | C (no greater than 20% but at least 5% inhibition of the RC kinase activity at 1 μM) | 184 to 194 °C | – |
| N#Cc1c(Nc2cccnc2)n[nH]c1NCc1ccc(O)cc1 [Compound C33, 5-((4-hydroxybenzyl)amino)-3-(pyridin-3-ylamino)-1H-pyrazole-4-carbonitrile] | – | 216 to 222 °C | 20 to 50% |
| NC(=O)c1c(Nc2cccc(Cl)c2)n[nH]c1NCc1ccc(O)cc1 [Compound D1, 3-((3-chlorophenyl)amino)-5-((4-hydroxybenzyl)amino)-1H-pyrazole-4-carboxamide] | – | 196 to 200 °C | ≥ 50% |
| NC(=O)c1c(Nc2ccccc2)n[nH]c1NCc1ccc(O)cc1 [Compound D2] | – | 214 to 216 °C | 20 to 50% |
| NC(=O)c1c(Nc2cccc(Cl)c2)n[nH]c1NCc1ccc(Oc2ncccn2)cc1 [Compound D11, 3-((3-chlorophenyl)amino)-5-((4-(pyrimidin-2-yloxy)benzyl)amino)-1H-pyrazole-4-carboxamide] | A (at least 50% inhibition of the RC kinase activity at 1 μM) | – | – |
| NC(=O)c1c(Nc2cccc(Cl)c2)n[nH]c1NCc1cccn1S(=O)(=O)c1ccccc1 [Compound D18, 3-((3-chlorophenyl)amino)-5-(((1-(phenylsulfonyl)-1H-pyrrol-2-yl)methyl)amino)-1H-pyrazole-4-carboxamide] | – | – | 20 to 50% |
| NC(=O)c1c(Nc2cccc(Cl)c2)n[nH]c1NCc1c[nH]c2c(F)c(F)c(F)c(F)c12 [Compound D22, 3-((3-chlorophenyl)amino)-5-(((4,5,6,7-tetrafluoro-1H-indol-3-yl)methyl)amino)-1H-pyrazole-4-carboxamide] | – | – | ≤ 5% |
| NC(=O)c1c(Nc2cccc(Cl)c2)n[nH]c1NCc1ccc(Oc2ncccn2)cc1 [Compound D32, 3-((3-chlorophenyl)amino)-5-((4-(pyrimidin-2-yloxy)benzyl)amino)-1H-pyrazole-4-carboxamide] | B (no greater than 50% but at least 20% inhibition of the RC kinase activity at 1 μM) | 193 to 199 °C | – |
| NC(=O)c1c(Nc2cccc(Cl)c2)n[nH]c1NCc1ccc(Oc2ccc(C(F)(F)F)cn2)cc1 [Compound D33, 3-((3-chlorophenyl)amino)-5-((4-((5-(trifluoromethyl)pyridin-2-yl)oxy)benzyl)amino)-1H-pyrazole-4-carboxamide] | – | 205 to 211 °C | 5 to 20% |
| NC(=O)c1c(Nc2cccnc2)n[nH]c1NCc1cccc(O)c1 [Compound D38, 5-((3-hydroxybenzyl)amino)-3-(pyridin-3-ylamino)-1H-pyrazole-4-carboxamide] | – | 208 to 212 °C | ≥ 50% |
| COc1cc(CNc2[nH]nc(Nc3cccnc3)c2C(N)=O)ccc1F [Compound D40, 5-((4-fluoro-3-methoxybenzyl)amino)-3-(pyridin-3-ylamino)-1H-pyrazole-4-carboxamide] | – | 226 to 229 °C | 20 to 50% |
| CN(C)c1ccc(CNc2[nH]nc(Nc3cccnc3)c2C(N)=O)c2ccccc12 [Compound D42, 5-(((4-(dimethylamino)naphthalen-1-yl)methyl)amino)-3-(pyridin-3-ylamino)-1H-pyrazole-4-carboxamide] | – | 225 to 229 °C | 20 to 50% |

| Structure (SMILES) | Activity (inhibition of the RC kinase activity at 1 μM) [1] | melting point | inhibition at 1 µM [1] |
| --- | --- | --- | --- |
| CCOc1ccc2ccccc2c1CNc1[nH]nc(Nc2cccnc2)c1C(N)=O [Compound D43, 5-(((2-ethoxynaphthalen-1-yl)methyl)amino)-3-(pyridin-3-ylamino)-1H-pyrazole-4-carboxamide] | – | 231 to 236 °C | 20 to 50% |
| COc1cc(OC)c(OC)cc1CNc1[nH]nc(Nc2cccc(Cl)c2)c1C(N)=O [Compound D58] | – | – | 5 to 20% |
| NC(=O)c1c(Nc2cccc(Cl)c2)n[nH]c1NCc1ccc([N+](=O)[O-])cc1 [Compound D74, 3-((3-chlorophenyl)amino)-5-((4-nitrobenzyl)amino)-1H-pyrazole-4-carboxamide] | – | – | 5 to 20% |
| Cc1cc(C)cc(CNc2[nH]nc(Nc3cccc(Cl)c3)c2C(N)=O)c1 [Compound D78] | – | – | 5 to 20% |
| NC(=O)c1c(Nc2ccc(-n3cccn3)cc2)n[nH]c1NCc1ccc(O)cc1 [Compound D79, 3-((4-(1H-pyrazol-1-yl)phenyl)amino)-5-((4-hydroxybenzyl)amino)-1H-pyrazole-4-carboxamide] | – | – | ≥ 50% |
| NC(=O)c1c(Nc2ccc(Cc3ccccc3)cc2)n[nH]c1NCc1ccc(O)cc1 [Compound D83, 3-((4-benzylphenyl)amino)-5-((4-hydroxybenzyl)amino)-1H-pyrazole-4-carboxamide] | – | – | ≥ 50% |
| NC(=O)c1c(Nc2ccc(-c3cc[nH]n3)cc2)n[nH]c1NCc1ccc(O)cc1 [Compound D84] | – | – | ≥ 50% |
| NC(=O)c1c(Nc2cccc(Cl)c2)n[nH]c1NCc1ccc(O)nc1 [Compound D86] | – | – | ≤ 5% |
| COc1ncc(CNc2[nH]nc(Nc3cccc(Cl)c3)c2C(N)=O)cn1 [Compound D87] | – | – | ≤ 5% |
| CC1CCN(C2CCN(c3n[nH]c(NCc4ccc(O)cc4)c3C(N)=O)CC2)CC1 [Compound D88] | – | – | 20 to 50% |
| COc1ccc(C(=O)Nc2ccc(Nc3n[nH]c(NCc4ccc(O)cc4)c3C(N)=O)cc2)cc1OC [Compound D129] | – | – | ≥ 50% |
| NC(=O)c1c(Nc2ccc(NC(=O)c3cccc(Cl)c3)cc2)n[nH]c1NCc1ccc(O)cc1 [Compound D130] | – | – | ≥ 50% |
| NC(=O)c1c(NC2CCCCC2)n[nH]c1NCc1ccc(O)cc1 [Compound D133, 3-(cyclohexylamino)-5-((4-hydroxybenzyl)amino)-1H-pyrazole-4-carboxamide] | – | – | 20 to 50% |
| NC(=O)c1c(Nc2ccc(CN3CCOCC3)cc2)n[nH]c1NCc1ccc(O)cc1 [Compound D134, 5-((4-hydroxybenzyl)amino)-3-((4-(morpholinomethyl)phenyl)amino)-1H-pyrazole-4-carboxamide] | – | – | ≥ 50% |
| Cc1ccc(S(=O)(=O)Nc2ccc(Nc3n[nH]c(NCc4ccc(O)cc4)c3C(N)=O)cc2)cc1 [Compound D136, 5-((4-hydroxybenzyl)amino)-3-((4-(4-methylphenylsulfonamido)phenyl)amino)-1H-pyrazole-4-carboxamide] | – | – | 20 to 50% |
| COc1cccc(C(=O)Nc2ccc(Nc3n[nH]c(NCc4ccc(O)cc4)c3C(N)=O)cc2)c1 [Compound D145] | A (at least 50% inhibition of the RC kinase activity at 1 μM) | – | – |
| NC(=O)c1c(Nc2ccc(NC(=O)c3ccccc3OC(F)(F)F)cc2)n[nH]c1NCc1ccc(O)cc1 [Compound D147] | A (at least 50% inhibition of the RC kinase activity at 1 μM) | – | – |
| NC(=O)c1c(Nc2cccc(Cl)c2)n[nH]c1NCc1c[nH]nc1-c1ccc(F)cc1 [Compound D166] | – | – | ≤ 5% |
